The structures appear in SMILES notation. Entries after “also recorded” stand apart in the source; their conditions may differ.

A short description of data set [1]: Change in tumor D-allose concentration after intraperitoneal or oral administration of D-allose to renal cell carcinoma xenotransplantation mouse model (HPLC). The format is in vivo. Conditions: for D-allose detected in tumor: by 1 hour after oral administration. The protocol:
(§1) The experiment was conducted using two different human renal cell carcinoma cell lines (Caki-1, ACHN). Each of the cells was cultured in a moist environment at 37° C., 5% CO2 using 10% fetal bovine serum and RPMI-1640 culture solution (2000 mg D-glucose/L) containing HEPES buffer and penicillin-streptomycin. The renal cell carcinoma xenotransplantation mouse model was prepared by adjusting cultured cells to a 1.0×10^5 cell/mL cell suspension with MEM culture solution, injecting 0.1 mL into the femoral subcutaneous tissue of Female athymic nude mice (BALB/c nu/nu, 6 weeks old), and confirming a tumor volume of 200 mm^3 or greater after 1 week, and it was used for the following experiment.
In a xenotransplantation mouse model of two different human renal cell carcinoma cell lines (Caki-1, ACHN), tumors were enucleated from the mice at the 1st hour, 2nd hour and 4th hour before and after administration of D-allose by intraperitoneal administration (FIGS. 1(A) and (B)) or oral administration (FIGS. 1(C) and (D)) of a solution of rare sugar D-allose prepared using physiological saline to 400 mg/kg/0.2 mL. The monosaccharides in the supernatant obtained by ultrasonic disruption of the tumors in 1 mL of PBS and centrifugal separation at 3000 rpm for 5 minutes were labeled with ABEE (4-aminobenzoic acid ethyl ester) and the D-allose was quantitatively analyzed by HPLC (high performance liquid chromatography) (FIG. 1).

For data set [2], the system named is human renal cell carcinoma cell line Caki-1 xenotransplantation mouse model. Put plainly: Change in tumor volume and tumor histology in renal cell carcinoma xenotransplantation mouse model by oral administration of D-allose. The format is in vivo. Conditions: Caki-1 xenograft. The protocol: as §1
(§2) A D-allose-containing solution was orally administered from day 1, where “day 0” was defined as the day when the tumor size of the renal cell carcinoma xenotransplantation mouse model prepared using Caki-1 as the human renal cell carcinoma cell line reached 200 mm^3 or greater.
(§3) Either 0.2 mL physiological saline or 0.2 mL physiological saline dissolving 400 mg/kg D-allose was injected into the esophagus of mice divided into 2 groups (control group and D-allose group), through a Neraton catheter. The administration was carried out once a day for a total of 32 consecutive days. The mouse body weights and the long and short diameters of the tumors were measured twice a week. The tumor volumes were calculated as: tumor long diameter×short diameter×short diameter×0.5. The livers and kidneys were extracted with the tumors from the mice on the 32nd day after the start of oral administration and used for the subsequent experiment.
(§4) The tumors, kidneys and livers were extracted from the renal cell carcinoma xenotransplantation mouse models (control group and D-allose-administered group, 32nd day after start of administration), and the tissues were fixed with 4% paraformaldehyde/phosphate buffer, embedded in paraffin and sliced to thicknesses of 4 μm. The thin slices were stained with hematoxylin-eosin staining (HE staining) and observed (FIG. 3, FIG. 5 and FIG. 6).

Data set [3] can be described thus: Body weight and HE staining of kidney and liver tissue in renal cell carcinoma xenotransplantation mouse model after oral D-allose. The format is in vivo. The method, then: as §2, §3, §4
Data set [4] has as its system human colorectal cancer cell line (DLD-1) xenotransplantation mice. Put plainly: Change in tumor volume in colorectal cancer xenotransplantation mouse model by administration of D-allose. The format is in vivo. Conditions: DLD-1 xenograft, Mann-Whitney U test. The method, then:
A cell suspension containing 2.0×10^6 cells of a human colorectal cancer cell line (DLD-1) was injected into femoral subcutaneous tissue of Male athymic nude mice (BALB/c Nude (nu/nu)mice), and adjustment of D-allose or D-glucose was initiated with “day 0” defined as the day when the tumor volume reached about 100 to 150 mm^3.
D-allose or D-glucose was intraperitoneally administered at 400 mg/kg to colorectal cancer xenotransplantation mice whose tumor volumes had reached about 100 mm^3. Physiological saline was used as the solvent for adjustment to 0.2 ml, and administration was once per day for a total of 30 days. The tumor volumes were measured every 6 days.
D-allose or D-glucose was orally administered at 100 mg/kg to colorectal cancer xenotransplantation mice whose tumor volumes had reached about 100 to 150 mm^3. Distilled water was used as the solvent for adjustment to 0.2 ml, and administration was once per day for a total of 30 days. The tumor volumes were measured every 6 days.

In data set [5] the test system is human renal cell carcinoma cell line Caki-1. Put plainly: Intracellular reactive oxygen species (ROS) production, DCF-DA fluorescence, Caki-1. The format is cell-based. Conditions: Caki-1, 50 mM D-allose, co-culture 1 hour, vs DMSO. The method, then: (§5) After seeding human renal cell carcinoma cell line (Caki-1 or ACHN) at 5.0×10^5 in a 100 mm dish, culturing for 24 hours and then co-culturing with DMSO or D-allose (50 mM) for 1 hour, 10 μM 2,7-Dichlorofluorescin diacetate (DCF-DA; D6883, Sigma-Aldrich, USA) was added and the mixture was allowed to stand at 37° C. for 30 minutes. The cells were recovered with trypsin treatment and collected by centrifugal separation for 5 minutes at 3500×g, after which they were resuspended in ice-cold PBS and a CytoFLEX S (Beckman Coulter, CA, USA) was used to detect the DCF-DA fluorescence. Each experiment was conducted 3 times, and the data were analyzed using CytExpert software and recorded as the average value±SE (FIG. 8).

For data set [6], the system named is human renal cell carcinoma cell line ACHN. Put plainly: Intracellular reactive oxygen species (ROS) production, DCF-DA fluorescence, ACHN. The format is cell-based. Conditions: 50 mM D-allose, co-culture 1 hour, vs DMSO. The protocol:
as §5

Data set [7] has as its system TXNIP. Put plainly: TXNIP expression (Western blotting) in Caki-1. The format is cell-based, human. Conditions: Caki-1, 10, 25 or 50 mM D-allose, 48 hours. The protocol:
(§6) A human renal cell carcinoma cell line (Caki-1 or Caki-2) was seeded at 5.0×10^5 in a 100 mm dish and cultured for 24 hours, after which it was co-cultured with D-allose (10, 25 or 50 mM). After 48 hours, the cells were recovered and the protein was extracted, and the concentration of each protein was measured using a Bio-Rad Protein Assay Kit (Bio-Rad, Laboratories, Inc. USA). A protein sample ([…]) was electrophoresed on 10% Mini-PROTAN TGX Precast Gel (Bio-Rad) and a Trans-Blot Turbo transfer system (Bio-Rad) was used for transfer onto a PVDF Western Blotting Membrane. After blocking treatment for 1 hour (Superblock T20. Thermo, Rockford. Ill., USA), anti-TXNIP antibody (D5F3E, CST. USA. 1:1000) was used as primary antibody for reaction using an iBind Flex Western System (Thermo). The loading control used was β-actin (ab8227, abcam, CamBridge, UK, 1:1000).

Data set [8] deals with TXNIP. Put plainly: TXNIP expression (Western blotting) in Caki-2. The format is cell-based, human. Conditions: Caki-2, 10, 25 or 50 mM D-allose, 48 hours. The protocol:
as §6
Background: A western blot detects proteins with antibodies after separation by electrophoresis.

As for `O=C[C@H](O)[C@H](O)[C@H](O)[C@H](O)CO` [D-allose], in data set [1] (400 mg/kg, Caki-1 and ACHN tumors (not distinguished)), the “tumor D-allose concentration with oral administration relative to intraperitoneal administration” value is “about 80%”. The “D-allose detected in tumor” value was “detected in all of the tumors” in data set [1] (ACHN tumors, 400 mg/kg) and “detected in all of the tumors” in data set [1] (Caki-1 tumors, 400 mg/kg). For the same molecule, the “time of maximum intratumoral D-allose concentration” value in data set [1] (Caki-1 tumors, oral administration, 400 mg/kg) turned out to be 1 h. In addition, in data set [1] (transintestinal administration, summary statement), the “uptake into renal cell carcinoma compared to non-transintestinal (intraperitoneal) administration” value is on record as “equivalent rate or with approximately about 20% reduction”. Also, in data set [2] (oral 400 mg/kg once a day for 32 days), the “tumor volume at the 32nd day compared to tumor volume before D-allose administration” value was “significantly reduced”. Further, in data set [2] (oral 400 mg/kg once a day, after the 8th day, Mann-Whitney U test), the “tumor volume compared to the control group” value is “significantly reduced”. In addition, the “nuclear fission in HE stained tumor tissue” value in data set [2] (oral 400 mg/kg/day, 32nd day, evaluation by a pathology specialist) is recorded as “reduced nuclear fission”. Also, the “body weight compared to the control group” value in data set [3] (oral 400 mg/kg once a day, 32-day observation period) is listed as “no significant difference”. Also, in data set [3] (oral 400 mg/kg/day, 32nd day), the “HE staining images of kidney tissue compared to the control group” value is reported as “No particular difference”. Moreover, the “HE staining images of liver tissue compared to the control group” value in data set [3] (oral 400 mg/kg/day, 32nd day) was “No particular difference”. The “tumor volume compared to the D-glucose group” value in data set [4] (intraperitoneal 400 mg/kg once per day for 30 days, after the 18th day) is “significantly smaller”; in data set [4] (oral 100 mg/kg once per day for 30 days, 100 mg/kg), “no significant difference; also recorded: has not exhibited the anticancer effect”. Moreover, the “intracellular ROS” value in data set [5] and in data set [6] was “significantly increased” in each case. Further, the TXNIP expression entry with TXNIP [7] and in the data set on TXNIP [8] was “increases TXNIP expression in a D-allose dose-dependent manner” each time.

The values are drawn from patent publication US20230141777A1, “COMPOSITION WHICH IS FOR TREATING OR PREVENTING RENAL CELL CANCER AND CONTAINS D-ALLOSE AS ACTIVE INGREDIENT, AND METHOD FOR TREATING OR PREVENTING CANCER USING SAME” (NATIONAL UNIVERSITY CORPORATION KAGAWA UNIVERSITY, priority 2020, published 2023).
